According to ChEMBL document CHEMBL1142243, “Potent and selective alpha-ketoheterocycle-based inhibitors of the anandamide and oleamide catabolizing enzyme, fatty acid amide hydrolase” (J Med Chem, 2007):

Legend:
[1] = molecular target: T1, Fatty-acid amide hydrolase 1 (Homo sapiens, UniProt O00519); test: Inhibition of human FAAH expressed in COS7 cells by [14C]oleamide breakdown; format: cell-based, COS-7
T1 sequence (O00519 whole entry): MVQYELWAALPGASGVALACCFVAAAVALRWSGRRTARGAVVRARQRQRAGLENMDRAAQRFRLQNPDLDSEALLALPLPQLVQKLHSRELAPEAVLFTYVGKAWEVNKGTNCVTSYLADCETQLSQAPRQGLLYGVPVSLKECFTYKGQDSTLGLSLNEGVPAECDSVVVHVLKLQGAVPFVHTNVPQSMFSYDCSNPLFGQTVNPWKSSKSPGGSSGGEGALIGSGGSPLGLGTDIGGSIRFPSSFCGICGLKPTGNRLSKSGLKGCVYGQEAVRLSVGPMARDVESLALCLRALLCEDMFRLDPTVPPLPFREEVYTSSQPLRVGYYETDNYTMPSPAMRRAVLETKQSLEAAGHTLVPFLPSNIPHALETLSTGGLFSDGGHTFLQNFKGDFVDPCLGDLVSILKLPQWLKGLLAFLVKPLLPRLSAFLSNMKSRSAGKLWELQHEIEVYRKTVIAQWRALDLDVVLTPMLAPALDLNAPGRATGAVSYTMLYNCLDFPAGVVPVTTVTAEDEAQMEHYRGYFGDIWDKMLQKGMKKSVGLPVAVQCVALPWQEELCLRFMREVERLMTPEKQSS

Liver carboxylesterase 1 = molecular target: T2, Liver carboxylesterase 1 (Homo sapiens, UniProt P23141); test: Inhibition of TGH
T2 sequence (P23141 whole entry): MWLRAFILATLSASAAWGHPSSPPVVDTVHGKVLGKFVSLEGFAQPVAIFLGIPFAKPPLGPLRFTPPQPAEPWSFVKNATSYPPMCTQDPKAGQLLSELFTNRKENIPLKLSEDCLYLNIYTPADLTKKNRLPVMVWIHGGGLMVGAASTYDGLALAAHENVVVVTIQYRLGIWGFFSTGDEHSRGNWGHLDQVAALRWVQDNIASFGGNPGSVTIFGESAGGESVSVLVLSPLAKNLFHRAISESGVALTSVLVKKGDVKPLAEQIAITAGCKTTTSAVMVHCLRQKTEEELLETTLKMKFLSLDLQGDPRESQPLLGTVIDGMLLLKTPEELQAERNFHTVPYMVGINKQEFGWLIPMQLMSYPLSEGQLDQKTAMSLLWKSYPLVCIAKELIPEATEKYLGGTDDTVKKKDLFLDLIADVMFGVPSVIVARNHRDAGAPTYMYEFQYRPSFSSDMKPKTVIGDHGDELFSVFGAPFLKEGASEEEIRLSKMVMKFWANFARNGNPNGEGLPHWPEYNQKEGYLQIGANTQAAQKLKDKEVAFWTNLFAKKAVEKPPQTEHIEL

Homo sapiens [2] = species: Homo sapiens; test: Selectivity for FAAH over TGH
[3] = molecular target: T3, Neutral cholesterol ester hydrolase 1 (Homo sapiens, UniProt Q6PIU2); test: Inhibition of KIAA1363
T3 sequence (Q6PIU2 whole entry): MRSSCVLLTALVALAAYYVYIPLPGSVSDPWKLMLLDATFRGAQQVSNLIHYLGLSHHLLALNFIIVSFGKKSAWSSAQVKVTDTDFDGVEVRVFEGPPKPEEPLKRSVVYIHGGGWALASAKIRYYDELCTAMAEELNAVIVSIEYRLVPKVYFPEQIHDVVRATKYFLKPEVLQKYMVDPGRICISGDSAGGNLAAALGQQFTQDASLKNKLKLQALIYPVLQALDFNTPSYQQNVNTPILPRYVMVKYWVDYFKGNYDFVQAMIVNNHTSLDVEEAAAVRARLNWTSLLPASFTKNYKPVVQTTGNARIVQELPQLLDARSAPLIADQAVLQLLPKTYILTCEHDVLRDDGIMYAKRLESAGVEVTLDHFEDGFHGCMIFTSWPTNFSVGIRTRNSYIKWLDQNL

[4] = molecular target: Fatty-acid amide hydrolase 1 (Rattus norvegicus) (UniProt P97612); test: Inhibition of rat recombinant FAAH expressed in Escherichia coli by [14C]oleamide breakdown
Homo sapiens [5] = species: Homo sapiens; test: Selectivity for FAAH over KIAA1363

`O=C(O)c1ccc(-c2cnc(C(=O)CCCCCCc3ccccc3)o2)nc1` was tested, and the Ki [1] was 8 nM, the IC50 (Liver carboxylesterase 1) was 3000 nM and the Ratio IC50 (Homo sapiens [2]) was 60. For the same molecule, the IC50 [3] was greater than 100000 nM, the IC50 [4] was 50 nM and the Ki [4] was 7 nM. For the same molecule, the Ratio IC50 (Homo sapiens [5]) was greater than 2000.

Molecule `NC(=O)c1cccc(-c2cnc(C(=O)CCCCCCc3ccccc3)o2)c1` has an IC50 (Liver carboxylesterase 1) greater than 100000 nM, a Ratio IC50 (Homo sapiens [2]) greater than 40 and an IC50 [3] greater than 100000 nM. For the same molecule, the IC50 [4] was 2700 nM, the Ki [4] was 6 nM and the Ratio IC50 (Homo sapiens [5]) was greater than 40.

Molecule `O=C(O)c1cccc(-c2cnc(C(=O)CCCCCCc3ccccc3)o2)c1` has an IC50 (Liver carboxylesterase 1) greater than 100000 nM, a Ratio IC50 (Homo sapiens [2]) greater than 70 and an IC50 [3] greater than 100000 nM. The IC50 [4] was 1400 nM, the Ki [4] was 5 nM and the Ratio IC50 (Homo sapiens [5]) was greater than 70.

For `O=C(O)c1cccc(-c2cnc(C(=O)CCCCCCc3ccccc3)o2)n1`, the IC50 (Liver carboxylesterase 1) was greater than 100000 nM, the Ratio IC50 (Homo sapiens [2]) was greater than 1000 and the IC50 [3] was greater than 100000 nM. For the same molecule, the IC50 [4] was 100 nM, the Ki [4] was 20 nM and the Ratio IC50 (Homo sapiens [5]) was greater than 1000.

Molecule `O=C(CCCCCCc1ccccc1)c1ncc(-c2cc(C(F)(F)F)ccn2)o1` has an IC50 (Liver carboxylesterase 1) of 2000 nM, a Ratio IC50 (Homo sapiens [2]) of 1300 and an IC50 [3] greater than 100000 nM. It also gave an IC50 [4] of 1.5 nM, a Ki [4] of 3.5 nM and a Ratio IC50 (Homo sapiens [5]) greater than 67000.

Molecule `COc1ccnc(-c2cnc(C(=O)CCCCCCc3ccccc3)o2)c1` has an IC50 (Liver carboxylesterase 1) of 500 nM, a Ratio IC50 (Homo sapiens [2]) of 300 and an IC50 [3] greater than 100000 nM. For the same molecule, the IC50 [4] was 1.7 nM, the Ki [4] was 0.8 nM and the Ratio IC50 (Homo sapiens [5]) was 59000.

`O=C(CCCCCCc1ccccc1)c1ncc(C(=O)N2CCCCC2)o1` gave an IC50 (Liver carboxylesterase 1) of 8000 nM, a Ratio IC50 (Homo sapiens [2]) of 20 and an IC50 [3] greater than 100000 nM. The IC50 [4] was 450 nM, the Ki [4] was 8 nM and the Ratio IC50 (Homo sapiens [5]) was greater than 200.

Molecule `N#Cc1ccnc(-c2cnc(C(=O)CCCCCCc3ccccc3)o2)c1` has an IC50 (Liver carboxylesterase 1) of 400 nM, a Ratio IC50 (Homo sapiens [2]) of 500 and an IC50 [3] greater than 100000 nM. For the same molecule, the IC50 [4] was 0.8 nM, the Ki [4] was 1.1 nM and the Ratio IC50 (Homo sapiens [5]) was greater than 125000.

Molecule `NS(=O)(=O)c1cccc(-c2cnc(C(=O)CCCCCCc3ccccc3)o2)c1` has an IC50 (Liver carboxylesterase 1) of 200 nM, a Ratio IC50 (Homo sapiens [2]) of 0.5 and an IC50 [3] greater than 100000 nM. It also gave an IC50 [4] of 400 nM, a Ki [4] of 2 nM and a Ratio IC50 (Homo sapiens [5]) greater than 200.

In the case of `O=C(CCCCCCc1ccccc1)c1ncc(C(F)(F)F)o1`, the IC50 (Liver carboxylesterase 1) is reported as 200 nM, the Ratio IC50 (Homo sapiens [2]) is reported as 3 and the IC50 [3] is reported as greater than 100000 nM. It also gave an IC50 [4] of 77 nM and a Ratio IC50 (Homo sapiens [5]) greater than 1300.

Molecule `COc1cc(-c2cnc(C(=O)CCCCCCc3ccccc3)o2)nc(OC)n1` has an IC50 (Liver carboxylesterase 1) of 70 nM, a Ratio IC50 (Homo sapiens [2]) of 0.2 and an IC50 [3] greater than 100000 nM. For the same molecule, the IC50 [4] was 400 nM, the Ki [4] was 5 nM and the Ratio IC50 (Homo sapiens [5]) was greater than 250.

With `O=C(CCCCCCc1ccccc1)c1ncco1` the IC50 (Liver carboxylesterase 1) was 20 nM, the Ratio IC50 (Homo sapiens [2]) was 0.008 and the IC50 [3] was 19000 nM. The IC50 [4] was 2500 nM and the Ratio IC50 (Homo sapiens [5]) was 8.

`COC(=O)c1ccnc(-c2cnc(C(=O)CCCCCCc3ccccc3)o2)c1` was tested, and the IC50 (Liver carboxylesterase 1) was 900 nM, the Ratio IC50 (Homo sapiens [2]) was 2000 and the IC50 [3] was greater than 100000 nM. For the same molecule, the IC50 [4] was 0.6 nM, the Ki [4] was 1.3 nM and the Ratio IC50 (Homo sapiens [5]) was greater than 170000.

`Cc1ccnc(-c2cnc(C(=O)CCCCCCc3ccccc3)o2)c1` was tested, and the IC50 (Liver carboxylesterase 1) was 2000 nM, the Ratio IC50 (Homo sapiens [2]) was 2000 and the IC50 [3] was greater than 100000 nM. For the same molecule, the IC50 [4] was 1 nM, the Ki [4] was 0.6 nM and the Ratio IC50 (Homo sapiens [5]) was greater than 100000.

Work on `O=C(CCCCCCc1ccccc1)c1ncc(-c2cc(F)ccn2)o1` yielded an IC50 (Liver carboxylesterase 1) of 600 nM, a Ratio IC50 (Homo sapiens [2]) of 240 and an IC50 [3] greater than 100000 nM. The IC50 [4] was 2.5 nM, the Ki [4] was 2 nM and the Ratio IC50 (Homo sapiens [5]) was greater than 40000.

With `COc1ncc(-c2cnc(C(=O)CCCCCCc3ccccc3)o2)c(OC)n1` the IC50 (Liver carboxylesterase 1) was 3000 nM, the Ratio IC50 (Homo sapiens [2]) was 0.3 and the IC50 [3] was greater than 100000 nM. For the same molecule, the IC50 [4] was 9000 nM, the Ki [4] was 26 nM and the Ratio IC50 (Homo sapiens [5]) was greater than 11.

`O=C(CCCCCCc1ccccc1)c1ncc(-c2cc(=O)[nH]c(=O)[nH]2)o1` was tested, and the IC50 (Liver carboxylesterase 1) was 30000 nM, the Ratio IC50 (Homo sapiens [2]) was 6200 and the IC50 [3] was greater than 100000 nM. The IC50 [4] was 5 nM, the Ki [4] was 12 nM and the Ratio IC50 (Homo sapiens [5]) was greater than 20000.
